Earlier results in US20220305008A1, “TREATMENT OF CANCER HAVING GNAQ OR GNA11 GENETIC MUTATIONS WITH PROTEIN KINASE C INHIBITORS” (IDEAYA BIOSCIENCES, INC., priority 2019, published 2022).

Columns and labels:
[1] = tested on: metastatic uveal melanoma (MUM); conditions: patients with MUM (metastatic uveal melanoma)
[2] = in vivo, po

SMILES: CC1(N)CCN(c2cccnc2NC(=O)c2nc(-c3ncccc3C(F)(F)F)cnc2N)CC1 [IDE196]
- anti-tumor activity [1]: preliminary anti-tumor activity
- safety and tolerability of dose [2]: safe and tolerable
